Experimental data from patent publication US20040141912A1, “Method for targeting chemical compounds to cells and pharmaceutical compositions used therein” (priority 2001, published 2004).
“Also recorded” adds a separate entry of the source.

Tests used:
Jurkat cells = assay: Fluorescent microscopy of DDL uptake by Jurkat cells induced to undergo apoptosis by anti-Fas antibody; type: cell-based, human
Method: FIG. 1: Jurkat cells were treated with anti-Fas antibody (0.1 μg/ml) for three hours. As a result, a marked percentage of the cells became apoptotic (i.e., PLS-activated cells). For subsequent inhibition of PLS, culture was then treated for 30 minutes with EGTA (1 mM) and BAPTA (20 μM), (i.e., PLS-inhibited culture). Both cultures were treated with DDL (1 μM, 2 minutes) and visualized by a fluorescent microscope (Olympus):
Cultured Jurkat cells (human adult T cell leukemia cells) were grown in suspension in RPMI medium (Beit-Haemek, Israel), supplemented with 10% of fetal calf serum (FCS), 4 mM of L-glutamine, 1 mM of sodium pyruvate, 1 mM CaCl2 and antibiotics (100 units/ml penicilin; 100 μg/ml streptomycin and 12.5 units/ml of nystatin). Prior to induction of apoptosis, medium was replaced with HBS buffer (10 mM HEPES; 140 mM NaCl, 1 mM CaCl). Apoptosis was then triggered by treatment with anti-Fas Ab (0.1 μg/ml; 3 hrs).
Such a procedure culminates in accumulation of a large percentage of apoptotic cells within the culture. Culture was then incubated with DDL at a final concentration of 1 μM for 5 minutes, and then taken immediately for fluorescent microscopy [Olympus fluorescent microscope, model IX70, excitation wavelength of 360 nm, emission at 530 nm].
Modulation of PLS activity was achieved by the calcium depletion-repletion procedure (Momchilova, A., et al., 2000). Inhibition of PLS by Ca^2+-deprivation was performed by cell incubation with the extra-and intracellular chelating agents EGTA (Ethylen glycol-bis (β-aminoethyl ether)-N,N,N′-tetraacetic acid, 1 mM) and BAPTA-AM ([1,2-bis(o-Amino-phenoxy) ethane-N,N,N′,N′-tetraacetic acid tetra-(acetoxymethyl) ester, 20 μM, respectively. Such a procedure eliminates any traces of Ca^2+ possibly present either intra- or extra-cellularly. Subsequent to the induction of apoptosis for three hours, cells were subjected to said PLS inhibition for 30 minutes. Cells were then incubated with DDL for 5 minutes, and subjected to fluorescent microscopy.
For re-activation of PLS, the EGTA/BAPTA-treated cells were now treated with CaCl (1 mM) and calcium ionophore A23187 (2 μM, Calbiochem, Darmstadt, Germany), thus elevating ambient Ca^2+ levels.

HeLa S3 cells = assay: Flow-cytometric (FACS) analysis of DDL binding to apoptotic cells in aged HeLa culture; type: cell-based; conditions: HeLa aged 96 h
Method: FIG. 2: HeLa cells were allowed to age by incubating the culture for 96 hours without exchange of the growth medium. As a result, a marked percentage of the cells became apoptotic. Cells were then incubated with DDL (1 μM, 2 minutes) under three different conditions: PLS-activation; PLS-inhibition; and reactivation of inhibited-PLS as defined above. Shown is quantitative analysis of fluorescence intensity (geomean) values.
For this purpose, cultured, aged HeLa S3 cells (ATCC CCL-2.2) were grown in Dulbecco's modified Eagle's medium (DMEM), containing CaCl (1.8 mM) and supplemented with 2 mM of L-glutamine; 100 units/ml of penicillin; 100 μg/ml of streptomycin; 12.5 units/ml of nystatin and 10% of fetal calf serum (FCS). Cells were seeded at a density of 5×10^6 cells/plate on a […] culture plates in a volume of 10 ml, and were allowed to age in culture for 96 hours without exchange of the growing medium. Such a procedure culminates in a large percentage of apoptotic cells within the culture. Culture (1×10^7/ml) was then incubated with DDL at a final concentration of 5 μM in HBS for 5 minutes, and taken immediately for FACS analysis for detection of bound DDL, using Becton-Dickinson cell sorter and CellQuest software. Excitation was at 360 nm and emission was measured at 530 nm.
Three different conditions were examined (FIG. 2): PLS-activation by the apoptotic process, PLS-inhibition; and reactivation of inhibited-PLS.

`CN(C)c1cccc2c(S(=O)(=O)NCCCCC(NS(=O)(=O)c3cccc4c(N(C)C)cccc34)C(=O)O)cccc12` (centres unmarked) [DDL] was tested, and the “DDL uptake after re-activation of PLS” value (Jurkat cells; EGTA/BAPTA-treated cells + Ca2+ 1 mM + calcium ionophore A23187 2 μM) was “re-acquisition of a strong DDL uptake; also recorded: fast, selective and marked uptake”, the “DDL uptake (fluorescence) by apoptotic cells” value (Jurkat cells; PLS-activated culture, anti-Fas Ab 0.1 μg/ml 3 h, DDL 1 μM) was “Some of the cells manifest DDL binding; also recorded: Selective and fast uptake” and the “Intracellular localisation of DDL fluorescence” value (Jurkat cells; apoptotic cells) was “staining the cytoplasm but not the nucleus; also recorded: in the cytoplasm of those cells but not within the nuclei”. For the same molecule, the “DDL uptake (fluorescence intensity) after PLS inhibition” value (Jurkat cells; apoptotic cells, Ca2+-deprivation: EGTA 1 mM + BAPTA 20 μM, 30 min, DDL 1 μM) was “marked reduction in the intensity of DDL-binding; also recorded: marked decrease in DDL uptake”, the “DDL binding by intact cells not undergoing apoptosis” value (Jurkat cells; same culture, DDL 1 μM) was “did not bind manifest significant DDL” and the “DDL binding (fluorescence shift) after reactivation of PLS” value (HeLa S3 cells; Ca2+ re-administration) was “restored this shift”. For the same molecule, the “DDL binding (fluorescence shift) after PLS inhibition” value (HeLa S3 cells; Ca2+-deprivation) was “almost completely abolished this shift” and the “DDL binding (fluorescence shift), PLS-activated apoptotic cells” value (HeLa S3 cells; PLS-activation by the apoptotic process) was “distinct shift to higher fluorescence levels”.
